# Values joined by “and” are separate entries in the source; they are usually repeats but may differ in a detail not shown here. Identical values can stand only once. Like-named read-outs stand apart in the source and are kept apart here.
# How the values were obtained:
# [1] = tested on: D. immitis Mf, Missouri isolate; assay: Cell attachment assay (canine PMN or PBMC attachment to Mf), Missouri isolate; type: cell-based, Dirofilaria immitis
# [2] = tested on: D. immitis Mf, Georgia-2 isolate; assay: Cell attachment assay (canine PMN or PBMC attachment to Mf), Georgia-2 isolate; type: cell-based, Dirofilaria immitis
structure (smiles),measurement,setting,value
"CC[C@H](C)[C@H]1O[C@]2(CC[C@@H]1C)C[C@@H]1C[C@@H](C/C=C(\C)[C@@H](O[C@H]3C[C@H](OC)[C@@H](O[C@H]4C[C@H](OC)[C@@H](O)[C@H](C)O4)[C@H](C)O3)[C@@H](C)/C=C/C=C3\CO[C@@H]4[C@H](O)C(C)=C[C@@H](C(=O)O1)[C@]34O)O2 [IVM, ivermectin]",Percentage (±SEM) of Mf with cells attached,[1],48 ± 6% and 60 ± 3%
same,lowest drug concentration at which a statistically significant increase (p = <0.05) in cell attachment was observed compared to the no-drug control,[1],3 nM
same,Percentage (±SEM) of Mf with cells attached,[2],41 ± 6% and 71 ± 5%
same,lowest drug concentration at which a statistically significant increase (p = <0.05) in cell attachment was observed compared to the no-drug control,[2],1 nM
"CO/N=C1\C[C@]2(C[C@@H]3C[C@@H](C/C=C(\C)C[C@@H](C)/C=C/C=C4\CO[C@@H]5[C@H](O)C(C)=C[C@@H](C(=O)O3)[C@]45O)O2)O[C@H](/C(C)=C/C(C)C)[C@H]1C [MOX, moxidectin]",Percentage (±SEM) of Mf with cells attached,"[1]; PBMC, 1 μM drug, Missouri Mf",63 ± 5%
same,lowest drug concentration at which a statistically significant increase (p = <0.05) in cell attachment was observed compared to the no-drug control,"[1]; PBMC, 40 h, Missouri Mf, 2-way ANOVA",1 nM
same,Percentage (±SEM) of Mf with cells attached,"[1]; PMN, 1 μM drug, Missouri Mf",65 ± 5%
same,lowest drug concentration at which a statistically significant increase (p = <0.05) in cell attachment was observed compared to the no-drug control,"[1]; PMN, 24 h, Missouri Mf, 2-way ANOVA",3 nM
same,Percentage (±SEM) of Mf with cells attached,"[2]; PBMC, 1 μM drug, Georgia-2 Mf",63 ± 5%
same,lowest drug concentration at which a statistically significant increase (p = <0.05) in cell attachment was observed compared to the no-drug control,"[2]; PBMC, 40 h, Georgia-2 Mf, 2-way ANOVA",1 nM
same,Percentage (±SEM) of Mf with cells attached,"[2]; PMN, 1 μM drug, Georgia-2 Mf",54 ± 6%
same,lowest drug concentration at which a statistically significant increase (p = <0.05) in cell attachment was observed compared to the no-drug control,"[2]; PMN, 24 h, Georgia-2 Mf, 2-way ANOVA",3 nM

# Source: patent US20220133688A1, “MACROCYCLIC LACTONE ANTHELMINTICS AGAINST NEMATODES” (Bayer Animal Health GmbH, priority 2019, published 2022)
